Reference: ChEMBL document CHEMBL1641454, “6-Benzylamino 4-oxo-1,4-dihydro-1,8-naphthyridines and 4-oxo-1,4-dihydroquinolines as HIV integrase inhibitors” (Bioorg Med Chem Lett, 2011)

test system: not listed separately; test: Oral bioavailability in rat at 5 mg/kg; type: ADME, organism-based; conditions: in vivo

Compound | bioavailability [%]
COc1nc2c(cc1Cc1cccc(Cl)c1F)c(=O)c(C(=O)O)cn2[C@H](CO)C(C)(C)C | 31
CC(C)(C)[C@@H](CO)n1cc(C(=O)O)c(=O)c2cc(Cc3cccc(Cl)c3F)c(N3CCOCC3)nc21 | 26
COc1nc2c(cc1NCc1c(F)cc(F)cc1F)c(=O)c(C(=O)O)cn2[C@H](CO)C(C)(C)C | 23
COc1cc2c(cc1Cc1cccc(Cl)c1F)c(=O)c(C(=O)O)cn2[C@H](CO)C(C)C [ELVITEGRAVIR] | 26

test system: not listed separately; test: Volume of distribution in Beagle dog at 1 mg/kg, iv; type: ADME, organism-based, Canis lupus familiaris; parameters: dose 1 mg/kg, route intravenous; conditions: in vivo

Compound | Vd [L/kg]
CC(C)(C)[C@@H](CO)n1cc(C(=O)O)c(=O)c2cc(Cc3cccc(Cl)c3F)c(N3CCOCC3)nc21 | 1.03
COc1nc2c(cc1NCc1c(F)cc(F)cc1F)c(=O)c(C(=O)O)cn2[C@H](CO)C(C)(C)C | 1.93
COc1cc2c(cc1Cc1cccc(Cl)c1F)c(=O)c(C(=O)O)cn2[C@H](CO)C(C)C [ELVITEGRAVIR] | 2.38

test system: not listed separately; test: Half life in rhesus monkey at 1 mg/kg, iv; type: ADME, organism-based, Macaca mulatta; parameters: dose 1 mg/kg, route intravenous; conditions: in vivo

Compound | half-life [min]
CC(C)(C)[C@@H](CO)n1cc(C(=O)O)c(=O)c2cc(Cc3cccc(Cl)c3F)c(N3CCOCC3)nc21 | 486
COc1nc2c(cc1NCc1c(F)cc(F)cc1F)c(=O)c(C(=O)O)cn2[C@H](CO)C(C)(C)C | 132
COc1cc2c(cc1Cc1cccc(Cl)c1F)c(=O)c(C(=O)O)cn2[C@H](CO)C(C)C [ELVITEGRAVIR] | 192

test system: not listed separately; test: Volume of distribution in rhesus monkey at 1 mg/kg, iv; type: ADME, organism-based, Macaca mulatta; parameters: dose 1 mg/kg, route intravenous; conditions: in vivo

Compound | Vd [L/kg]
CC(C)(C)[C@@H](CO)n1cc(C(=O)O)c(=O)c2cc(Cc3cccc(Cl)c3F)c(N3CCOCC3)nc21 | 3.06
COc1nc2c(cc1NCc1c(F)cc(F)cc1F)c(=O)c(C(=O)O)cn2[C@H](CO)C(C)(C)C | 3.93
COc1cc2c(cc1Cc1cccc(Cl)c1F)c(=O)c(C(=O)O)cn2[C@H](CO)C(C)C [ELVITEGRAVIR] | 1.99

test system: not listed separately; test: Plasma clearance in rhesus monkey at 1 mg/kg, iv; type: ADME, organism-based, Macaca mulatta; parameters: dose 1 mg/kg, route intravenous; conditions: not given

Compound | clearance [mL/min/kg]
CC(C)(C)[C@@H](CO)n1cc(C(=O)O)c(=O)c2cc(Cc3cccc(Cl)c3F)c(N3CCOCC3)nc21 | 19.7
COc1nc2c(cc1NCc1c(F)cc(F)cc1F)c(=O)c(C(=O)O)cn2[C@H](CO)C(C)(C)C | 44.2
COc1cc2c(cc1Cc1cccc(Cl)c1F)c(=O)c(C(=O)O)cn2[C@H](CO)C(C)C [ELVITEGRAVIR] | 7.17

test system: not listed separately; test: Half life in Beagle dog at 1 mg/kg, iv; type: ADME, organism-based, Canis lupus familiaris; parameters: dose 1 mg/kg, route intravenous; conditions: in vivo

Compound | half-life [min]
CC(C)(C)[C@@H](CO)n1cc(C(=O)O)c(=O)c2cc(Cc3cccc(Cl)c3F)c(N3CCOCC3)nc21 | 156
COc1nc2c(cc1NCc1c(F)cc(F)cc1F)c(=O)c(C(=O)O)cn2[C@H](CO)C(C)(C)C | 120
COc1cc2c(cc1Cc1cccc(Cl)c1F)c(=O)c(C(=O)O)cn2[C@H](CO)C(C)C [ELVITEGRAVIR] | 216

test system: not listed separately; test: AUC in rat at 5 mg/kg, po; type: ADME, organism-based; parameters: dose 5 mg/kg, route oral; conditions: plasma

Compound | AUC [ng·h/mL]
COc1nc2c(cc1Cc1cccc(Cl)c1F)c(=O)c(C(=O)O)cn2[C@H](CO)C(C)(C)C | 8500
CC(C)(C)[C@@H](CO)n1cc(C(=O)O)c(=O)c2cc(Cc3cccc(Cl)c3F)c(N3CCOCC3)nc21 | 2700
COc1nc2c(cc1NCc1c(F)cc(F)cc1F)c(=O)c(C(=O)O)cn2[C@H](CO)C(C)(C)C | 2890
COc1cc2c(cc1Cc1cccc(Cl)c1F)c(=O)c(C(=O)O)cn2[C@H](CO)C(C)C [ELVITEGRAVIR] | 5630

test system: not listed separately; test: Half life in rat at 5 mg/kg, po; type: ADME, organism-based; parameters: dose 5 mg/kg, route oral; conditions: in vivo

Compound | half-life [min]
COc1nc2c(cc1Cc1cccc(Cl)c1F)c(=O)c(C(=O)O)cn2[C@H](CO)C(C)(C)C | 174
CC(C)(C)[C@@H](CO)n1cc(C(=O)O)c(=O)c2cc(Cc3cccc(Cl)c3F)c(N3CCOCC3)nc21 | 156
COc1nc2c(cc1NCc1c(F)cc(F)cc1F)c(=O)c(C(=O)O)cn2[C@H](CO)C(C)(C)C | 222
COc1cc2c(cc1Cc1cccc(Cl)c1F)c(=O)c(C(=O)O)cn2[C@H](CO)C(C)C [ELVITEGRAVIR] | 174

test system: not listed separately; test: Cmax in rat at 5 mg/kg, po; type: ADME, organism-based; parameters: dose 5 mg/kg, route oral; conditions: in vivo

Compound | Cmax [ng/mL]
COc1nc2c(cc1Cc1cccc(Cl)c1F)c(=O)c(C(=O)O)cn2[C@H](CO)C(C)(C)C | 1230
CC(C)(C)[C@@H](CO)n1cc(C(=O)O)c(=O)c2cc(Cc3cccc(Cl)c3F)c(N3CCOCC3)nc21 | 414
COc1nc2c(cc1NCc1c(F)cc(F)cc1F)c(=O)c(C(=O)O)cn2[C@H](CO)C(C)(C)C | 666
COc1cc2c(cc1Cc1cccc(Cl)c1F)c(=O)c(C(=O)O)cn2[C@H](CO)C(C)C [ELVITEGRAVIR] | 1140

test system: not listed separately; test: Volume of distribution in rat at 2 mg/kg, iv; type: ADME, organism-based; parameters: dose 2 mg/kg, route intravenous; conditions: in vivo

Compound | Vd [L/kg]
COc1nc2c(cc1Cc1cccc(Cl)c1F)c(=O)c(C(=O)O)cn2[C@H](CO)C(C)(C)C | 2.31
CC(C)(C)[C@@H](CO)n1cc(C(=O)O)c(=O)c2cc(Cc3cccc(Cl)c3F)c(N3CCOCC3)nc21 | 4.02
COc1nc2c(cc1NCc1c(F)cc(F)cc1F)c(=O)c(C(=O)O)cn2[C@H](CO)C(C)(C)C | 4.18
COc1cc2c(cc1Cc1cccc(Cl)c1F)c(=O)c(C(=O)O)cn2[C@H](CO)C(C)C [ELVITEGRAVIR] | 2.74

test system: Human immunodeficiency virus 1; test: Antiviral activity against VSV-G protein pseudotyped HIV1 luciferase reporter virus in mixture of human HeLa/JC53 cells assessed as luminescence after 48 hrs; type: functional, organism-based; conditions: Human immunodeficiency virus 1, Hela-JC53, 48 h

Compound | EC50 [nM]
CC[C@@H](CO)n1cc(C(=O)O)c(=O)c2cc(Cc3cccc(Cl)c3F)c(OC)nc21 | 40
COc1nc2c(cc1Cc1cccc(Cl)c1F)c(=O)c(C(=O)O)cn2[C@H](CO)C(C)C | 11
CC(C)[C@@H](CO)n1cc(C(=O)O)c(=O)c2cc(Cc3cccc(Cl)c3F)ncc21 | 54
CC(C)[C@@H](CO)n1cc(C(=O)O)c(=O)c2cc(Cc3cccc(Cl)c3F)cnc21 | 65
CC(C)[C@@H](CO)n1cc(C(=O)O)c(=O)c2nc(Cc3cccc(Cl)c3F)ccc21 | > 2500
COc1nc(Cc2cccc(Cl)c2F)cc2c(=O)c(C(=O)O)cn([C@H](CO)C(C)C)c12 | 291
COc1nc2c(cc1Cc1cccc(Cl)c1F)c(=O)c(C(=O)O)cn2[C@@H](C)CO | 177
CCC[C@@H](CO)n1cc(C(=O)O)c(=O)c2cc(Cc3cccc(Cl)c3F)c(OC)nc21 | 180
CCCC[C@@H](CO)n1cc(C(=O)O)c(=O)c2cc(Cc3cccc(Cl)c3F)c(OC)nc21 | 20
COc1nc2c(cc1Cc1cccc(Cl)c1F)c(=O)c(C(=O)O)cn2[C@H](CO)C(C)(C)C | 8.6
COc1nc2c(cc1Cc1cccc(Cl)c1F)c(=O)c(C(=O)O)cn2[C@H](CO)CC(C)C | 5.9
CC(C)(C)[C@@H](CO)n1cc(C(=O)O)c(=O)c2cc(Cc3cccc(Cl)c3F)c(N3CCOCC3)nc21 | 9.9
COc1nc2c(cc1NCc1c(F)cc(F)cc1F)c(=O)c(C(=O)O)cn2[C@H](CO)C(C)(C)C | 7.6
COc1cc2c(cc1Cc1cccc(Cl)c1F)c(=O)c(C(=O)O)cn2[C@H](CO)C(C)C [ELVITEGRAVIR] | 0.7

test system: Human immunodeficiency virus 1; test: Antiviral activity against VSV-G protein pseudotyped HIV1 luciferase reporter virus in mixture of human HeLa/JC53 cells assessed as luminescence after 48 hrs in presence of 40% human serum; type: functional, organism-based; conditions: Human immunodeficiency virus 1, Hela-JC53, 48 h

Compound | EC50 [nM]
CC[C@@H](CO)n1cc(C(=O)O)c(=O)c2cc(Cc3cccc(Cl)c3F)c(OC)nc21 | 307
COc1nc2c(cc1Cc1cccc(Cl)c1F)c(=O)c(C(=O)O)cn2[C@H](CO)C(C)C | 136
CC(C)[C@@H](CO)n1cc(C(=O)O)c(=O)c2cc(Cc3cccc(Cl)c3F)ncc21 | 425
CC(C)[C@@H](CO)n1cc(C(=O)O)c(=O)c2cc(Cc3cccc(Cl)c3F)cnc21 | 1940
COc1nc(Cc2cccc(Cl)c2F)cc2c(=O)c(C(=O)O)cn([C@H](CO)C(C)C)c12 | 1770
COc1nc2c(cc1Cc1cccc(Cl)c1F)c(=O)c(C(=O)O)cn2[C@@H](C)CO | 1050
CCC[C@@H](CO)n1cc(C(=O)O)c(=O)c2cc(Cc3cccc(Cl)c3F)c(OC)nc21 | 1020
CCCC[C@@H](CO)n1cc(C(=O)O)c(=O)c2cc(Cc3cccc(Cl)c3F)c(OC)nc21 | 245
COc1nc2c(cc1Cc1cccc(Cl)c1F)c(=O)c(C(=O)O)cn2[C@H](CO)C(C)(C)C | 61
COc1nc2c(cc1Cc1cccc(Cl)c1F)c(=O)c(C(=O)O)cn2[C@H](CO)CC(C)C | 129
CC(C)(C)[C@@H](CO)n1cc(C(=O)O)c(=O)c2cc(Cc3cccc(Cl)c3F)c(N3CCOCC3)nc21 | 39
COc1nc2c(cc1NCc1c(F)cc(F)cc1F)c(=O)c(C(=O)O)cn2[C@H](CO)C(C)(C)C | 42
COc1cc2c(cc1Cc1cccc(Cl)c1F)c(=O)c(C(=O)O)cn2[C@H](CO)C(C)C [ELVITEGRAVIR] | 36

test system: not listed separately; test: Plasma clearance in rat at 2 mg/kg, iv; type: ADME, organism-based; parameters: dose 2 mg/kg, route intravenous; conditions: not given

Compound | clearance [mL/min/kg]
COc1nc2c(cc1Cc1cccc(Cl)c1F)c(=O)c(C(=O)O)cn2[C@H](CO)C(C)(C)C | 2.67
CC(C)(C)[C@@H](CO)n1cc(C(=O)O)c(=O)c2cc(Cc3cccc(Cl)c3F)c(N3CCOCC3)nc21 | 7
COc1nc2c(cc1NCc1c(F)cc(F)cc1F)c(=O)c(C(=O)O)cn2[C@H](CO)C(C)(C)C | 5.83
COc1cc2c(cc1Cc1cccc(Cl)c1F)c(=O)c(C(=O)O)cn2[C@H](CO)C(C)C [ELVITEGRAVIR] | 3.83

test system: not listed separately; test: Metabolic stability in human liver microsome assessed as compound remaining after 30 mins; type: ADME; conditions: liver microsomes, read-out: Stability

Compound | remaining at 0.5 h [%]
COc1nc2c(cc1Cc1cccc(Cl)c1F)c(=O)c(C(=O)O)cn2[C@H](CO)C(C)C | 100
CC(C)[C@@H](CO)n1cc(C(=O)O)c(=O)c2cc(Cc3cccc(Cl)c3F)ncc21 | 100
CC(C)[C@@H](CO)n1cc(C(=O)O)c(=O)c2cc(Cc3cccc(Cl)c3F)cnc21 | 99
COc1nc2c(cc1Cc1cccc(Cl)c1F)c(=O)c(C(=O)O)cn2[C@H](CO)C(C)(C)C | 82
COc1nc2c(cc1Cc1cccc(Cl)c1F)c(=O)c(C(=O)O)cn2[C@H](CO)CC(C)C | 92
CC(C)(C)[C@@H](CO)n1cc(C(=O)O)c(=O)c2cc(Cc3cccc(Cl)c3F)c(N3CCOCC3)nc21 | 97
COc1nc2c(cc1NCc1c(F)cc(F)cc1F)c(=O)c(C(=O)O)cn2[C@H](CO)C(C)(C)C | 75
COc1cc2c(cc1Cc1cccc(Cl)c1F)c(=O)c(C(=O)O)cn2[C@H](CO)C(C)C [ELVITEGRAVIR] | 38

test system: not listed separately; test: Plasma clearance in Beagle dog at 1 mg/kg, iv; type: ADME, organism-based, Canis lupus familiaris; parameters: dose 1 mg/kg, route intravenous; conditions: not given

Compound | clearance [mL/min/kg]
CC(C)(C)[C@@H](CO)n1cc(C(=O)O)c(=O)c2cc(Cc3cccc(Cl)c3F)c(N3CCOCC3)nc21 | 10
COc1nc2c(cc1NCc1c(F)cc(F)cc1F)c(=O)c(C(=O)O)cn2[C@H](CO)C(C)(C)C | 15.5
COc1cc2c(cc1Cc1cccc(Cl)c1F)c(=O)c(C(=O)O)cn2[C@H](CO)C(C)C [ELVITEGRAVIR] | 10
